Legend:
[1] = tested on: Staphylococcus aureus 209P; assay: Anti-bacterial test, Chequer board method; format: cell-based
Description: Tests for anti-bacterial properties were conducted on compositions of the sample of chitosan and SMX, mixed according to the mixing ratios shown in Tables 1 through 3, respectively.
As strains to be tested, there are used Staphylococcus aureus 209P (a typical example of Gram positive bacteria), Escherichia coli NIHJ (a typical example of Gram negative bacteria) and Pseudomonas aeruginosa 3456.
The combined effects obtained by the present tests were determined in accordance with the Chequer board method with reference to the knowledges of Bushby et al (Bushby, S.R.M. & G.H. Hitchings: Trimethoprim. a sulfonamide potentiator. Brit. J. pharm. Chemother 33: 72 ~ 90, 1968) and Bohni et al (Bohni. E: Vergleichende bakteriologishe Untersuchungen mit der Kombination Trimethoprim/Sulfamethoxazol in vitro und in vivo. Chemotherapy. Suppl ad. 14: 1 21, 1969), both of whom reporting the combined effect between sulfamethoxazole (SMX) and trimethoprim (TMP), both of which are noted on the market at present. The results of the tests are shown in Table 1 through 3, respectively.

Escherichia coli NIHJ = assay: Survival of mice infected with Escherichia coli; format: in vivo, ICR mice (male); settings: in 28 hours; dosage of SMX of 5 or 10 mg in two hours after the infection
Excerpt: A strain of Escherichia coli NIHJ is floated in physiologic saline, and a mixture solution containing the strain of Escherichia coli NINJ and 4% mucin, being equal in absorbance to each other is produced. ICR mice (male) were fed with […] this mixture solution containing the bacteria. As the result, all examples of the mice infected with the strain of Escherichia coli (intra Peritoneal administration of 5 ~ 10 times LDso in mice) died in twelve hours (The first contrast group). Subsequently, 80 m 90% of the group of mice on the dosage of SMX of 5 or 10 mg in two hours after the infection were still alive in 24 hours. The rate of survival of the group of mice decreased to 10 ~ 20% in 28 hours.

## Cc1cc(NS(=O)(=O)c2ccc(N)cc2)no1 [SMX, sulfamethoxazol]
[1]; Staphylococcus aureus, 209P, SMX solely used, in a test tube, read-out: minimum inhibition concentration (MIC) of SMX
  MIC: 50 µg/mL
[1]; chitosan added at a rate of 2.5 µg/mℓ
  MIC of SMX: 3.1 µg/mL
[1]; chitosan added at a rate of 2.5 µg/mℓ, versus SMX solely used
  anti-bacterial action is increased: about 16 times SMX
Escherichia coli NIHJ
  rate of survival: 10 ~ 20%
